Legend:
Penicillium expansum [1] = assay: in vivo contact drench assay on apples
Experimental: In order to assess the activity of Compound A (FIG. 1) as a contact drench fungicide, an in vivo assay is developed. […] Compound A is dissolved in water to achieve a final treatment solution concentration of 250, 50, or 10 mg/L. The fruit is dipped in Compound A solution for 1 minute and allowed to dry for 1 hour. Fruit wounds are then inoculated with 30 μL of 1×10^6 per mL Penicillium expansum spore suspension (apple) or Penicillium digitatum spore suspension (orange). Clamshells are then placed in a 10.8-cup SnapWare airtight container (Model #109842) and incubated for 3 days at 21° C.

Botrytis cinerea [2] = assay: in vitro spore germination assay, temperature regimes; assay type: cell-based; conditions: B. cinerea spores; for inhibition at 0.035 µg/mL: 0.035 mg/L; for inhibition at 0.07 µg/mL: 0.07 mg/L; for inhibition at 0.14 µg/mL: 0.14 mg/L
Experimental: (§1) In order to assess the activity of Compound A as a volatile fungicide, an in vitro assay is developed to evaluate spore germination. Two mL of water agar is poured in 3.5 cm Petri plates. […] Plates are then incubated for either one day at 0° C., five day at 0° C., or five day at 0° C. plus an additional one or two days at 21° C.

Penicillium expansum [3] = assay: as above; assay type: cell-based; conditions: P. expansum spores; for inhibition at 0.035 µg/mL: 0.035 mg/L; for inhibition at 0.07 µg/mL: 0.07 mg/L; for inhibition at 0.14 µg/mL: 0.14 mg/L
Experimental: as §1

Fusarium sambucinum = assay: in vivo volatile assay on potato slices; conditions: 10 mg/L, 21° C. for 3 days
Experimental: To test the effect of Compound A (FIG. 1) on vegetables, potato, onion and squash were obtained from a local store, and the surface sterilized with 0.825% sodium hypochlorite (NaOCl). A slice of potato or two leaves of onion were placed in a sterile Petri plate, while whole squash were placed in a sterile 10.8-cup SnapWare airtight container (Model #109842). Each slice of potato was inoculated with 20 μL of a 1×10^5 spores/mL Fusarium sambucinum suspension, while onions were inoculated with 20 μL of a 1×10^6 spores/mL Botrytis cinerea suspension. For inoculation of squash, a small core was removed, and a mycelial plug of Phytophthora capsici was inserted and capped with the core. Compound A was diluted in acetone, and added to a 42.5 mm Whatman #1 filter disk (Cat. No. 1001-042) attached to the inner side of the lid at a rate to achieve a final headspace concentration of 10 mg/L. The acetone was permitted to evaporate for 5 minutes before parafilm sealing the plates or closing the airtight containers. The vegetables were incubated at 21° C. for 3 days, and evaluated for mycelial growth, dry rot, and water-soaked appearance (mm diameter) with results summarized in Table 13.

Botrytis cinerea [4] = assay: combination treatment with 1-MCP on white roses; assay type: in vivo; conditions: three day volatile treatment at 21° C.
Experimental: To evaluate a combination treatment of Compound A with 1-methylcyclopropene (1-MCP), an in vivo experiment is performed on white roses.
Five white roses are placed in an 800 mL jar containing 200 mL of a common commercial flower preservative. Three jars are then placed in a 117 L Rubbermaid storage box (Cat #2244). Two small fans are placed in opposite ends of the container to assist with the distribution of the two volatiles. A 500 parts per billion (ppb) volume per volume (v/v) 1-MCP treatment is applied (AgroFresh, Springhouse, Pa.) for 24 hours at 21° C. After the 1-MCP treatment is completed, the containers are vented, and Compound A powder is applied in a dose dependent manner to achieve a final headspace concentration of 0.2, 0.04, or 0.008 mg/L with a sublimation device (copper tube heated to 200° C. with fan flow at 0.5 L/min), with the end of the tube penetrating through a ½ inch side port in the container that is sealed immediately after the application. The flowers are incubated for three days at 21° C. After treatment, the flowers are evaluated for an additional seven days at 21° C. for disease incidence and severity of the flower petals.

OB1OCc2cc(F)ccc21 [Compound A]
Browning (mm) (Penicillium expansum [1]; dip 10 mg/L): 8.5 mm
Sporulation (mm) (Penicillium expansum [1]; dip 10 mg/L): 2.1 mm
Browning (mm) (Penicillium expansum [1]; dip 50 mg/L): 3.7 mm
Sporulation (mm) (Penicillium expansum [1]; dip 50 mg/L): 1.6 mm
Browning (mm) (Penicillium expansum [1]; dip 250 mg/L): 0.8 mm
Sporulation (mm) (Penicillium expansum [1]; dip 250 mg/L): 0.5 mm
inhibition at 0.035 µg/mL (Botrytis cinerea [2]; 24 h, 1 day, 0° C.): 0%
inhibition at 0.07 µg/mL (Botrytis cinerea [2]; 24 h, 1 day, 0° C.): 0%
inhibition at 0.14 µg/mL (Botrytis cinerea [2]; 24 h, 1 day, 0° C.): 0%
inhibition at 0.035 µg/mL (Botrytis cinerea [2]; 120 h, 5 day, 0° C.): 0%
inhibition at 0.07 µg/mL (Botrytis cinerea [2]; 120 h, 5 day, 0° C.): 0%
inhibition at 0.14 µg/mL (Botrytis cinerea [2]; 120 h, 5 day, 0° C.): 0%
inhibition at 0.035 µg/mL (Botrytis cinerea [2]; 5 day, 0° C. 1 day, 21° C.): 0%
inhibition at 0.07 µg/mL (Botrytis cinerea [2]; 5 day, 0° C. 1 day, 21° C.): 0%
inhibition at 0.14 µg/mL (Botrytis cinerea [2]; 5 day, 0° C. 1 day, 21° C.): 0%
inhibition at 0.035 µg/mL (Penicillium expansum [3]; 24 h, 1 day, 0° C.): 0%
inhibition at 0.07 µg/mL (Penicillium expansum [3]; 24 h, 1 day, 0° C.): 0%
inhibition at 0.14 µg/mL (Penicillium expansum [3]; 24 h, 1 day, 0° C.): 0%
inhibition at 0.035 µg/mL (Penicillium expansum [3]; 120 h, 5 day, 0° C.): 0%
inhibition at 0.07 µg/mL (Penicillium expansum [3]; 120 h, 5 day, 0° C.): 0%
inhibition at 0.14 µg/mL (Penicillium expansum [3]; 120 h, 5 day, 0° C.): 0%
inhibition at 0.035 µg/mL (Penicillium expansum [3]; 5 day, 0° C. 1 day, 21° C.): 0%
inhibition at 0.07 µg/mL (Penicillium expansum [3]; 5 day, 0° C. 1 day, 21° C.): 0%
inhibition at 0.14 µg/mL (Penicillium expansum [3]; 5 day, 0° C. 1 day, 21° C.): 0%
Dry rot (Fusarium sambucinum): 0 mm
Mycelial growth (Fusarium sambucinum): 0 mm
Incidence (%) (Botrytis cinerea [4]; 0.008 mg/L): 20.0%
Severity (0-4) (Botrytis cinerea [4]; 0.008 mg/L): 0.2
Incidence (%) (Botrytis cinerea [4]; 0.04 mg/L): 20.0%
Severity (0-4) (Botrytis cinerea [4]; 0.04 mg/L): 0.03
Incidence (%) (Botrytis cinerea [4]; 0.2 mg/L): 0.0%
Severity (0-4) (Botrytis cinerea [4]; 0.2 mg/L): 0.0

From patent US9426996B2, “Use of benzoxaboroles as volatile antimicrobial agents on meats, plants, or plant parts” (AgroFresh Inc., priority 2013, dated 2016)
